The values below come from US20150284362A1, “CARBAZOLE-CONTAINING AMIDES, CARBAMATES, AND UREAS AS CRYPTOCHROME MODULATORS” (ReSet Therapeutics, Inc., priority 2014, published 2015).

In test [1] the target is T1, FAD-binding domain of human CRY1 protein (hCRY1) (Homo sapiens, UniProt Q16526).
T1 construct: Myc-DDK (Myc + FLAG) (C); made in house
T1 sequence (Q16526 1-494): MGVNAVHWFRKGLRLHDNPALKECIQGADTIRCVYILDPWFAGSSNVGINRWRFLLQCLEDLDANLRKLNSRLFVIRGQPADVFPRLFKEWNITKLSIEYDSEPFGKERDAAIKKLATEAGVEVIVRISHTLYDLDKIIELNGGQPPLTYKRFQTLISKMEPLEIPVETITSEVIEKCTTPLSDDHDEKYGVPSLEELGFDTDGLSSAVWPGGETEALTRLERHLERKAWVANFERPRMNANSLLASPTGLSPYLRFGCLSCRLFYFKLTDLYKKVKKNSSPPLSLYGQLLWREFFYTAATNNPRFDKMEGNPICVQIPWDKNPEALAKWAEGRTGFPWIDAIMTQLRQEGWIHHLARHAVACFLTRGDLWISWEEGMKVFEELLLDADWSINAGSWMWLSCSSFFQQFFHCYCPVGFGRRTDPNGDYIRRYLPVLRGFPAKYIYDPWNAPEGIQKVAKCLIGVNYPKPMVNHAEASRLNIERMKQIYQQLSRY
Kind of test: Thermal shift binding assay (differential scanning fluorimetry). The note with it: purified FADBD 0.5 μg per well, 5% DMSO. On the procedure:
Binding of compounds to the isolated FAD-binding domain of human CRY1 protein (hCRY1) was determined using a differential scanning fluorimetry (‘thermal shift’) assay (Pantoliano et al. (2001) J Biomol Screening 6, 429; Niesen et al. (2007) Nature Protocols 2, 2212). The FAD-binding domain of hCRY1 (amino acid residues 1-494) with a C-terminal Myc-DDK tag (FADBD), was produced by transient transfection of HEK293T cells (Catalog # CRL-3216, American Type Culture Collection) and purified by anti-FLAG affinity chromatography (Catalog # A2220, Sigma-Aldrich). FADBD (0.5 μg per well) was incubated with dilutions of compounds in DMSO (5% DMSO final concentration in reaction) in 17.5 μl Tris-buffered saline (TBS) for 10 minutes on ice, then 2.5 μl of 8× Sypro-Orange Dye (Life Technologies) was added to each well. Triplicate wells were assayed for each compound concentration. The melting temperatures were measured in an ABI7500 quantitative PCR instrument using the melt curve mode with a thermal profile of 2 minutes at 25° C., followed by a ramp rate of 1° C./minute up to 99° C. The melting temperature for each well was determined from the first derivative of the melt curve. The change in melting temperature (ΔTm) was obtained by subtraction of the melting temperature of the FADBD in 5% DMSO alone.

The test system of the next test is db/db mice. Kind of test: 7 day dosing, glucose metabolism, insulin and compound levels in db/db mouse model of type II diabetes. Conditions: 50 mg/kg PO QD 7 days. Format: in vivo. From the text:
Significance was accepted when p<0.05.

On to `O=C1NCCN1CC(O)Cn1c2ccc(F)cc2c2cc(F)ccc21` (centres unmarked) [Compound 72, 1-(3-(3,6-difluoro-9H-carbazol-9-yl)-2-hydroxypropyl)imidazolidin-2-one], for which the “change in melting temperature (ΔTm) of hCRY1 FADBD” value in test [1] is on record as “dose-dependent increase in ΔTm”. In addition, in the test on db/db mice, the “OGTT glucose vs vehicle control group” value was “lower than the vehicle control group”.
